The results in this text go back to US5734081A, “Arylthio compounds” (Warner-Lambert Company, priority 1995, dated 1998).

For assay [1], the target named is T1, HIV-1 Nucleocapsid Protein (NCp7) (Human immunodeficiency virus type 1 group M subtype B, UniProt P12493).
T1 construct: The NCp7 protein containing 2 Zn-fingers and 2 Zn ions is incubated with drug
Briefly: Zinc extrusion assay (TSQ fluorescence) from the zinc fingers of HIV-1 nucleocapsid protein (NCp7). The class given is biochemical. The conditions noted are these: 10 μM compound, 2.8 μM NCp7, pH 7.4, 26° C., 90 minutes. In short, it runs like this:
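Purified NCp7 (2.8 μM, 2 Zn ions) incubated with 10 μM compound and 47 μM TSQ at pH 7.4, 26° C, 90 min; released Zn read by TSQ fluorescence (ex 355, em 400 nm) over time. % extrusion = measured fluorescence over that for full theoretical Zn release (5.6 μM) ×100.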

Another assay relates to HIV-1. Kind of assay: HIV H9 cell assay, anti-HIV-1 activity. The class given is cell-based. Conditions: Human immunodeficiency virus 1, H9, 168 h, read-out: EC50 (Effective Concentration which protects cells from viral cytopathic effects). An excerpt: Another test system utilized to evaluate the invention compounds is called HIV H9 assay. The HIV H9 cell assay measures the inhibitor concentration required to suppress HIV-1 virus replication. In this system, viral growth occurs through multiple rounds of the life-cycle. Any suppression of the replication kinetics results in a geometric decrease in virus production. As a result, this assay is a sensitive means of measuring the ability of a compound to inhibit HIV-1 viral replication.
The H9 T-cell line is batch infected with HIV virus at an M0I of 0.01. After 2 hours absorption, the cells are washed, resuspended in RPMI-1640/10% fetal calf serum, and seeded at […] of a 96-well plate. A duplicate plate of uninfected H9 cells is prepared for the cytotoxicity assay. Drugs are serially diluted 1/3.16 in DMSO, transferred to media at an 8× concentration, and then added to the cultures in triplicate. The final DMSO concentration of 0.002 (0.2%).
Viral production is measured by RT assay and cytotoxicity is measured by XTT assay at 7 days post-infection. The RT assay is performed as a modification of Borroto-Esoda and Boone, J. Virol., 1991;65:1952-1959 and quantitated using a Molecular Dynamics Phosphoimager with Imagequant software. The XTT assay is performed as a modification of Roehm, et al., J. Immuno. Methods., 1991;142:257-265 and quantitated using a molecular Devices Thermomax plate reader with Softmax software.
Data is electronically transferred to a Microsoft Excell spreadsheet for analysis. The RT assay values equivalent to 50% and 90% inhibition of virus production are calculated from the untreated controls. The concentrations of inhibitor required to produce these values (IC50 and IC90) are interpolated from data points flanking these RT activities. The XTT assay values equivalent to 50% cytotoxicity are calculated from the untreated controls. The concentrations of inhibitor required to produce this value are interpolated from data points flanking these XTT values.

In a further assay the test system is HIV-1IIIb. Kind of assay: Anti-HIV activity, HIV-1IIIb in CEM cells. Type of assay: cell-based. Conditions: CEM, HIV-1IIIb, read-out: EC50. On the procedure:
(§1) Yet another test system employed to determine antiviral activity is called the CEM cell assay.
(§2) T4 lymphocytes (CEM cell line) are exposed to HIV at a virus to cell ratio approximately 0.05, and plated along with noninfected control cells in 96-well microliter plates.
(§3) The candidate agent is dissolved in dimethyl sulfoxide (unless otherwise noted), then diluted 1:200 in cell culture medium. Further dilutions (half-log10) are prepared before adding to an equal volume of medium containing either infected or noninfected cells. Cultures are incubated at 37° in a 5% carbon dioxide atmosphere for 6 or 7 days. The tetrazolium salt, XTT, is added to all wells, and cultures are incubated to allow formazan color development by viable cells (J. National Cancer Institute, 1989;81:577-586). Individual wells are analyzed spectrophotometrically to quantitate formazan production, and in addition are viewed microscopically for detection of viable cells confirmation of protective activity.
(§4) Drug-tested virus-infected cells are compared with drug-treated noninfected cells and with other appropriate controls (untreated infected and untreated noninfected cells, drug-contain wells without cells, etc.) on the same plate. Data are reviewed in comparison with other tests done at the same time and a determination about activity is made.
(§5) The compounds of the invention were also evaluated against various other HIV strains and cell lines utilizing the assay methodology described above. The compounds were additionally evaluated against clinical isolates of HIV strains.

A further assay deals with HIV-1A17. Kind of assay: Anti-HIV activity, HIV-1A17 in MT-2 cells. Type of assay: cell-based. Conditions: Human immunodeficiency virus 1, MT2. On the procedure: as §5
The test system of the next assay is HIV-16R. Kind of assay: Anti-HIV activity, HIV-16R in MT-4 cells. The class given is cell-based, HIV-1. Conditions: Human immunodeficiency virus 1, MT4. On the procedure:
as §5

The subject of another assay is HIV-2ROD. Briefly: Anti-HIV activity, HIV-2ROD in CEM cells. The class given is cell-based. The conditions noted are these: Human immunodeficiency virus 2, CCRF-CEM; CEM, HIV-2ROD; read-out: EC50. As for the experimental part:
as §1, §2, §3, §4, §5

Another assay relates to HIV-1WEIO. Briefly: Anti-HIV activity, clinical isolate HIV-1WEIO in PBL. Type of assay: cell-based. Conditions: Human immunodeficiency virus 1. As for the experimental part: as §5
Setting [2] is: Human immunodeficiency virus 1, CCRF-CEM.

Molecules are shown by their SMILES. Where two headings read alike, the source gives them in different places.

Consider `NS(=O)(=O)c1ccc(NC(=O)c2ccccc2SSc2ccccc2C(=O)Nc2ccc(S(N)(=O)=O)cc2)cc1` [Example 1], for which, in assay [1], the “% Zinc Extrusion Relative to Control” value was 20%. The EC50 turned out to be 0.7 µM in the assay with HIV-1; 4.6 µM with HIV-1IIIb; 2.8 µM with HIV-1IIIb (setting [2]); 0.6 µM in the assay on HIV-1A17; 1.9 µM in the assay with HIV-16R; 2.6 µM in the assay with HIV-2ROD. This compound also gave an EC50 in the assay with HIV-1WEIO of 3.5 µM.
With `CC(=O)Nc1ccc(SSc2ccc(NC(C)=O)cc2C(N)=O)c(C(N)=O)c1` [Example 9, 2,2'-Dithiobis(5-acetylamino)benzamide], the “% Zinc Extrusion Relative to Control” value in assay [1] came out at 77%. The EC50 with HIV-1 is 1.7 µM; in the assay on HIV-1IIIb (setting [2]), 0.4 µM; in the assay with HIV-2ROD it was 1 µM; in the assay with HIV-1WEIO, 7.5 µM.
